Results published in ChEMBL document CHEMBL1130305, “The design and synthesis of orally active short duration spiroindane growth hormone secretagogues” (Bioorg Med Chem Lett, 1997).
Each block holds one molecule with its values, some of them ahead of it.

Assays:
[1] = species on record: Canis familiaris; experiment: Compound was evaluated for the lowest dose where fourfold elevations over basal GH levels were observed in Beagle dog model after peroral dose of 0.25 mpk; 8/8; assay type: functional, Canis lupus familiaris
[2] = system: Canis familiaris; experiment: Compound was evaluated for the lowest dose where fourfold elevations over basal GH levels were observed in Beagle dog model after intravenous dose of 0.025 mpk and 0.125 mpk oral dose; 6/8; assay type: functional, Canis lupus familiaris
[3] = half life was evaluated; assay type: ADME
[4] = species on record: Canis familiaris; experiment: Compound was evaluated for the lowest dose where fourfold elevations over basal GH levels were observed in Beagle dog model after peroral dose of 0.25 mpk; 2/5; assay type: functional, Canis lupus familiaris
[5] = species on record: Canis familiaris; experiment: Compound was evaluated for the lowest dose where fourfold elevations over basal GH levels were observed in Beagle dog model after peroral dose of 0.5 mpk; 4/4; assay type: functional, Canis lupus familiaris
[6] = system: Canis familiaris; experiment: Compound was evaluated for percentage of increase in IGF-1 levels, after chronic oral dosing at 1.0 mpk on day 4; assay type: functional, Canis lupus familiaris
[7] = Compound was evaluated for its bioavailability in the rats; assay type: ADME, organism-based; conditions: rat, in vivo; read-out: Bioavailabiility
[8] = system: Canis familiaris; experiment: Compound was evaluated for percentage of growth hormone of day1 response, after chronic oral dosing at 0.5 mpk on day 4; assay type: functional, Canis lupus familiaris
[9] = Compound was evaluated for its bioavailability in the dogs; assay type: ADME, organism-based, Canis lupus familiaris; conditions: dog, in vivo; read-out: Bioavailabiility
[10] = system: Canis familiaris; experiment: Compound was evaluated for percentage of increase in IGF-1 levels, after chronic oral dosing at 0.5 mpk on day 4; assay type: functional, Canis lupus familiaris
[11] = system: Canis familiaris; experiment: Compound was evaluated for the lowest dose where fourfold elevations over basal GH levels were observed in Beagle dog model after intravenous dose of 0.025 mpk and 0.125 mpk oral dose; 1/2; assay type: functional, Canis lupus familiaris
[12] = Compound was evaluated for its absorption in the rats; assay type: ADME, organism-based; conditions: rat, in vivo; read-out: Absorption
[13] = species on record: Canis familiaris; experiment: Compound was evaluated for the lowest dose where fourfold elevations over basal GH levels were observed in Beagle dog model after peroral dose of 0.25 mpk; 5/8; assay type: functional, Canis lupus familiaris
[14] = system: Canis familiaris; experiment: Compound was evaluated for percentage of growth hormone of day1 response, after chronic oral dosing at 1.0 mpk on day 4; assay type: functional, Canis lupus familiaris
[15] = species on record: Canis familiaris; experiment: Compound was evaluated for the lowest dose where fourfold elevations over basal GH levels were observed in Beagle dog model after peroral dose of 0.5 mpk; 1/2; assay type: functional, Canis lupus familiaris
[16] = species on record: Canis familiaris; experiment: Compound was evaluated for the lowest dose where fourfold elevations over basal GH levels were observed in Beagle dog model after peroral dose of 0.25 mpk; 1/1; assay type: functional, Canis lupus familiaris
[17] = species on record: Canis familiaris; experiment: Compound was evaluated for the lowest dose where fourfold elevations over basal GH levels were observed in Beagle dog model after peroral dose of 0.5 mpk; 2/2; assay type: functional, Canis lupus familiaris

half-life [3]: 4.8 h
SMILES: CC(C)(N)C(=O)N[C@H](COCc1ccccc1)C(=O)N1CCC2(CC1)CN(S(C)(=O)=O)c1ccccc12.Cl
Responders [1]: 8
Responders [2]: 6

SMILES: CCOC(=O)C[C@@H]1CC2(CCN(C(=O)[C@@H](CCCc3ccccc3)NC(=O)C(C)(C)N)CC2)c2ccccc21.Cl
Responders [4]: 2
Responders [5]: 4

bioavailability [7]: 4.5%
bioavailability [9]: 11.8%
Fa [12]: > 50%
SMILES: CCOC(=O)[C@H]1CC2(CCN(C(=O)[C@@H](CCCc3ccccc3)NC(=O)C(C)(C)N)CC2)c2ccccc21.Cl
Increase [6]: 45%
GH [8]: 65%
Increase [10]: 65%
Responders [11]: 1
Responders [13]: 5
GH [14]: 80%

half-life [3]: 1.7 h
SMILES: CC(C)(N)C(=O)N[C@H](CCCc1ccccc1)C(=O)N1CCC2(CC1)C[C@H](C(=O)O)c1ccccc12.Cl
Responders [15]: 1
Responders [16]: 1

SMILES: CC(C)(N)C(=O)N[C@H](CCCc1ccccc1)C(=O)N1CCC2(CC1)C[C@@H](CC(=O)O)c1ccccc12.Cl
Responders [17]: 2
